Measurements from patent publication US9370587B2, “Coloring substance for diagnostic ophtalmologic use” (IROS R.C. S.r.l., priority 2012, dated 2016).
Entries after “also recorded” stand apart in the source; their conditions may differ.

How the values were obtained:
[1] = Tolerability of topical use on the eye; format: in vivo, human; details: topical ocular use
[2] = tested on: epithelial cells; assay: Staining behaviour on tear film and corneal epithelial cells

Compound: Cc1cc2nc3c(=O)[nH]c(=O)nc-3n(C[C@H](O)[C@H](O)[C@H](O)CO)c2cc1C [riboflavin]
- harmfulness / side effects on the eye [1]: not harmful to the human eye; also recorded: side no effects; also recorded: absence of toxic effects on the corneal epithelium
- penetration into cells [2]: does not penetrate into the cells
